Results published in paper PMC9944328 (Nature Communications, 2023).

Tested on: SSTR2 mutants
Test: SSTRs Gi-mediated cAMP inhibition, GloSensor, HEK293, 5 μM forskolin, 15 min room temperature (SSTR2 mutants)
Assay type: cell-based, human
Details: for Fold of WT: Gi signaling EC50
Experimental: The levels of the intracellular 3′, 5′-cyclic AMP (cAMP) were measured by the GloSensor cAMP assay (Promega) as described in the previous studies[28],[41] which has been widely used. The human full-length SSTRs and mutants were cloned into the pcDNA3.1+ vector with a HA signal sequence followed by a Flag tag at the N-terminus. HEK293 cells (ATCC, CRL-1573) were seeded into 6-well microplates at a density of 1.0 × 10^6 cells/well and cultured for 24 h at 37 °C with 5% CO2. Cells were then co-transfected with SSTR wild-type or mutants and GloSensor plasmids. After 24 h of transfection, the cells were dissociated with TrypLE™ Express Enzyme (1X) (Thermo Fisher Scientific) and collected by centrifugation at 500 × g for 5 min. Then the collected cells were suspended in Hank’s balanced salt solution [HBSS (Thermo Fisher Scientific)] supplemented with […] (YEASEN), and then the suspension cells were seeded into 96-well plates with 90 μl/well. After incubating at room temperature for 40 min, 5 μM forskolin and ligands diluted in HBSS were added to each well and the plates were incubated at room temperature for 15 min. […] were measured using the Synergy H1 microplate reader (BioTek) and the data presented are means of at least three independent experiments.

N#Cc1cccc(-c2ccc3ncc(-c4cc(F)cc(F)c4)c(N4CCC(N)CC4)c3c2)c1O [paltusotine]
Activation potency of mutant (D295(7.36) substituted with a bulkier side chain, SSTR2): reduced the activation potency | Bottom (best-fit value), cAMP inhibition (D295A-1 (run 1)): -5.811 | LogEC50 (best-fit value), cAMP inhibition (D295A-1 (run 1)): -7.797 | Span (best-fit value), cAMP inhibition (D295A-1 (run 1)): 125.1 | Top (best-fit value), cAMP inhibition (D295A-1 (run 1)): 119.3 | Bottom (best-fit value), cAMP inhibition (D295A-2 (run 2)): -4.778 | LogEC50 (best-fit value), cAMP inhibition (D295A-2 (run 2)): -7.798 | Span (best-fit value), cAMP inhibition (D295A-2 (run 2)): 119.6 | Top (best-fit value), cAMP inhibition (D295A-2 (run 2)): 114.8 | Bottom (best-fit value), cAMP inhibition (D295A-3 (run 3)): -4.901 | LogEC50 (best-fit value), cAMP inhibition (D295A-3 (run 3)): -7.743 | Span (best-fit value), cAMP inhibition (D295A-3 (run 3)): 121.4 | Top (best-fit value), cAMP inhibition (D295A-3 (run 3)): 116.5 | Bottom (best-fit) (D295F, run 1): -4.815 | LogEC50 (D295F, run 1): -9.49 | Span (best-fit) (D295F, run 1): 83.08 | Top (best-fit) (D295F, run 1): 78.27 | Bottom (best-fit) (D295F, run 2): -4.16 | LogEC50 (D295F, run 2): -9.689 | Span (best-fit) (D295F, run 2): 84.37 | Top (best-fit) (D295F, run 2): 80.21 | Bottom (best-fit) (D295F, run 3): 9.942 | LogEC50 (D295F, run 3): -8.808 | Span (best-fit) (D295F, run 3): 67.74 | Top (best-fit) (D295F, run 3): 77.68 | Bottom (best-fit value) (F208A-1 (run 1)): 6.193 | LogEC50 (best-fit value) (F208A-1 (run 1)): -7.826 | Span (best-fit value) (F208A-1 (run 1)): 90.63 | Top (best-fit value) (F208A-1 (run 1)): 96.82 | Bottom (best-fit value) (F208A-2 (run 2)): 3.33 | LogEC50 (best-fit value) (F208A-2 (run 2)): -7.007 | Span (best-fit value) (F208A-2 (run 2)): 88.37 | Top (best-fit value) (F208A-2 (run 2)): 91.7 | Bottom (best-fit value) (F208A-3 (run 3)): -2.358 | LogEC50 (best-fit value) (F208A-3 (run 3)): -7.101 | Span (best-fit value) (F208A-3 (run 3)): 89.17 | Top (best-fit value) (F208A-3 (run 3)): 86.81 | Bottom (best-fit value) (F265A-1 (run 1)): -8.311 | LogEC50 (best-fit value) (F265A-1 (run 1)): -7.946 | Span (best-fit value) (F265A-1 (run 1)): 113.6 | Top (best-fit value) (F265A-1 (run 1)): 105.3 | Bottom (best-fit value) (F265A-2 (run 2)): -6.152 | LogEC50 (best-fit value) (F265A-2 (run 2)): -7.834 | Span (best-fit value) (F265A-2 (run 2)): 121 | Top (best-fit value) (F265A-2 (run 2)): 114.8 | Bottom (best-fit value) (F265A-3 (run 3)): -8.585 | LogEC50 (best-fit value) (F265A-3 (run 3)): -8.008 | Span (best-fit value) (F265A-3 (run 3)): 129.6 | Top (best-fit value) (F265A-3 (run 3)): 121 | Bottom (best-fit value) (F272A-1 (run 1)): 9.906 | LogEC50 (best-fit value), cAMP inhibition (F272A-1 (run 1)): -7.753 | Span (best-fit value), cAMP inhibition (F272A-1 (run 1)): 47.19 | Top (best-fit value) (F272A-1 (run 1)): 57.1 | Bottom (best-fit value) (F272A-2 (run 2)): 0.969 | LogEC50 (best-fit value), cAMP inhibition (F272A-2 (run 2)): -7.573 | Span (best-fit value), cAMP inhibition (F272A-2 (run 2)): 51.72 | Top (best-fit value) (F272A-2 (run 2)): 52.69 | Bottom (best-fit value) (F272A-3 (run 3)): 2.026 | LogEC50 (best-fit value), cAMP inhibition (F272A-3 (run 3)): -6.838 | Span (best-fit value), cAMP inhibition (F272A-3 (run 3)): 59.81 | Top (best-fit value) (F272A-3 (run 3)): 61.84 | Bottom (best-fit value), cAMP inhibition (F294A-1 (run 1)): 3.955 | LogEC50 (best-fit value), cAMP inhibition (F294A-1 (run 1)): -8.447 | Span (best-fit value), cAMP inhibition (F294A-1 (run 1)): 85.58 | Top (best-fit value), cAMP inhibition (F294A-1 (run 1)): 89.53 | Bottom (best-fit value), cAMP inhibition (F294A-2 (run 2)): -11.05 | LogEC50 (best-fit value), cAMP inhibition (F294A-2 (run 2)): -8.376 | Span (best-fit value), cAMP inhibition (F294A-2 (run 2)): 101.1 | Top (best-fit value), cAMP inhibition (F294A-2 (run 2)): 90.09 | Bottom (best-fit value), cAMP inhibition (F294A-3 (run 3)): 15.03 | LogEC50 (best-fit value), cAMP inhibition (F294A-3 (run 3)): -9.824 | Span (best-fit value), cAMP inhibition (F294A-3 (run 3)): 106.4 | Top (best-fit value), cAMP inhibition (F294A-3 (run 3)): 121.4 | Bottom (best-fit) (F294Y, run 1): 11.7 | LogEC50 (F294Y, run 1): -9.133 | Span (best-fit) (F294Y, run 1): 95.55 | Top (best-fit) (F294Y, run 1): 107.3 | Bottom (best-fit) (F294Y, run 2): 3.363 | LogEC50 (F294Y, run 2): -9.003 | Span (best-fit) (F294Y, run 2): 99.71 | Top (best-fit) (F294Y, run 2): 103.1 | Bottom (best-fit) (F294Y, run 3): -9.817 | LogEC50 (F294Y, run 3): -9.17 | Span (best-fit) (F294Y, run 3): 128.4 | Top (best-fit) (F294Y, run 3): 118.6 | Fold of WT (SSTR2 D295(7.36)A): 1.30 | Fold of WT (SSTR2 F127(3.37)A): 0.54 | Fold of WT (SSTR2 F208(5.38)A): 34.16 | Fold of WT (SSTR2 F265(6.44)A): 6.35 | Fold of WT (SSTR2 F272A): 33.58 | Fold of WT (SSTR2 F294(7.35)A): 1.40 | Fold of WT (SSTR2 I130(3.40)A): 10.09 | Fold of WT (SSTR2 I195(45.52)A): 44.36 | Fold of WT (SSTR2 K291(7.32)A): 2.78 | Fold of WT (SSTR2 L99(2.60)A): 9.09 | Fold of WT (SSTR2 N276(6.55)A): 0.88 | Fold of WT (SSTR2 P220(5.50)A): 1.71 | Fold of WT (SSTR2 Q102(2.63)A): 16.51 | Fold of WT (SSTR2 T194(45.51)A): 51.98 | Fold of WT (SSTR2 V103(2.64)A): 17.54 | Fold of WT (SSTR2 W269(6.48)A): 0.23
